Data set [1] relates to collagen-induced aggregation in rabbit platelet. Put plainly: Inhibition effect on collagen-induced aggregation in rabbit platelet. In kind it is cell-based. The method, then: (§1) The platelet aggregation inhibitory effect is measured by using AG-II aggregometer (manufactured by Bryston Manufacturing Co.). The blood sample used for the test is a 1/9 (by volume) mixture of sodium citrate and whole blood collected from rabbit. Said sample is subjected to 10-minute centrifugal separation at 1,000 r.p.m. to obtain a platelet rich plasma (PRP). The thus obtained PRP is separated, and the remaining blood sample is further subjected to 15-minute centrifugal separation at 3,000 r.p.m. to obtain a platelet poor plasma (PPP).
(§2) The number of platelets in the PRP is counted by the Brecher-Clonkite Method, and the PRP is diluted with the PPP to prepare a PRP sample with platelet concentration of 300,000/mm^3 for the adenosine diphosphate (ADP)-induced aggregation test. There is also prepared a PRP sample with platelet concentration of 450,000/mm^3 for the collagen-induced aggregation test.
(§3) 0.6 Milliliter of said PRP sample is added into 0.01 ml of a solution of a test compound of a predetermined concentration and the mixture is placed in a 37° C. thermostat for one minute. Then 0.07 ml of an ADP or collagen solution is added to the mixture. Transmittance of this mixture is determined and the change of transmittance is recorded by using the aggregometer at stirrer speed of 1,100 r.p.m. […] The ADP solution is adjusted to a concentration of 7.5×10^-5 M, and the collagen solution is prepared by triturating 100 mg of collagen with 5 ml of said buffer and the supernatant is used as collagen inducer. Acetylsalicylic acid is used as control for the ADP-induced aggregation test and the collagen-induced aggregation test, respectively. The platelet aggregation inhibitory effect is measured in terms of percent inhibition with respect to the aggregation rate of the controls. The aggregation rate is calculated from the following formula:
(§4) Aggregation rate=[(c-a)/(b-a)]×100
(§5) b: transmittance of PRP containing a test compound and an aggregation inducer

Data set [2] deals with ADP-induced aggregation in rabbit platelet. As to the kind of experiment: Inhibition effect on ADP-induced aggregation in rabbit platelet. It is filed as cell-based. The protocol: as §1, §2, §3, §4, §5
Data set [3] can be described thus: Acute Toxicity Test. The settings on record: mouse, in vivo; male mice, oral administration. The method, then:
The test compounds were administered orally to the mice and LD50 (mg/kg) of the compounds was determined.

The mark [4] stands for this setting: concentration of the test compound solution 10^-4 mole.
Setting [5] is: concentration of the test compound solution 10^-5 mole.
Setting [6] is: concentration of the test compound solution 10^-6 mole.
The mark [7] stands for this setting: Oryctolagus cuniculus, Platelet, read-out: Inhibition effect on collagen-induced aggregation.
The mark [8] stands for this setting: Oryctolagus cuniculus, Platelet, concentration of the test compound solution 10^-4 mole, read-out: Inhibition effect on collagen-induced aggregation.
Where [9] appears, read: Oryctolagus cuniculus, Platelet, concentration of the test compound solution 10^-5 mole, read-out: Inhibition effect on collagen-induced aggregation.
Setting [10] is: Oryctolagus cuniculus, Platelet, concentration of the test compound solution 10^-4 mole.
[11] abbreviates: Oryctolagus cuniculus, Platelet, concentration of the test compound solution 10^-5 mole, read-out: Inhibition effect on ADP-induced aggregation.
The mark [12] stands for this setting: Oryctolagus cuniculus, Platelet, concentration of the test compound solution 10^-6 mole, read-out: Inhibition effect on ADP-induced aggregation.
Where [13] appears, read: Oryctolagus cuniculus, Platelet, concentration of the test compound solution 10^-6 mole, read-out: Inhibition effect on collagen-induced aggregation.

Like-named read-outs stand apart in the source and are kept apart here. A value given as a limit tells only on which side of the number the result lay.

In general, inhibition refers to the share of the control response that was lost under treatment. As usually defined, the LD50 is the dose expected to kill half of the subjects tested.

As to `O=C1CCc2cc(OCCCC(=O)N(C3CCCCC3)C3CCCCC3Cl)ccc2N1` (stereo not drawn) [No. 30, 6-{3-[N--Cyclohexyl-N--(2-chlorocyclohexyl)-aminocarbonyl]propoxy}-3,4-dihydrocarbostyril, reference compound], the “Inhibition effect on collagen-induced aggregation” value came out at 91.5% in data set [1] (setting [4]), 89.9% in data set [1] (setting [5]) and 50.3% in data set [1] (setting [6]). Moreover, the “Inhibition effect on ADP-induced aggregation” value in data set [2] (setting [4]) was found to be 89.8%; in data set [2] (setting [5]) it was 82.9%; in data set [2] (setting [6]), 38.4%.
Regarding `CC(=O)Oc1ccccc1C(=O)O` [No. 69, Aspirin, reference compound], in data set [1] (setting [7]), the inhibition at 1 µM worked out at 7%, the inhibition at 10 µM was 9% and the inhibition at 100 µM was determined as 65%.
Consider `CN(Cc1cccs1)C(=O)CCCOc1ccc2[nH]c(=O)ccc2c1` [No. 5, 6-{3-[N-Methyl-N-(2-thienylmethyl)aminocarbonyl]propoxy}carbostyril], for which the inhibition at 100 µM amounted to 85.7% in data set [1] (setting [8]) and 100% in data set [2] (setting [10]). The inhibition at 10 µM in data set [1] (setting [9]) was determined as 30.7%; in data set [2] (setting [11]), 54.7%. Besides, the inhibition at 1 µM in data set [2] (setting [12]) came to 7.1%. This compound also gave an LD50 in data set [3] above 1000 mg/kg.
For the compound `O=C1CCc2cc(OCCCC(=O)N3CCN(c4ccccc4)CC3)ccc2N1` [No. 17, 6-[3-(4-Phenyl-1-piperazinylcarbonyl)propoxy]-3,4-dihydrocarbostyril], the results for the inhibition at 10 µM in data set [1] (setting [9]) and in data set [2] (setting [11]) were 37.8% and 25.1%, respectively. For the same compound, the inhibition at 1 µM in data set [1] (setting [13]) was 3.4%; in data set [2] (setting [12]), 4.3%. The compound further yielded an inhibition at 100 µM in data set [2] (setting [10]) of 100%. The same compound gave an LD50 in data set [3] above 1000 mg/kg.
With `O=C1CCc2cc(OCCCCC(=O)N(CCO)Cc3ccccc3)ccc2N1` [No. 22, 6-{4-[N-(2-Hydroxyethyl)-N-benzylaminocarbonyl]butoxy}-3,4-dihydrocarbostyril], the inhibition at 10 µM in data set [1] (setting [9]) came out at 49.2%; in data set [2] (setting [11]) it was 63.2%. Besides, the results for the inhibition at 1 µM in data set [1] (setting [13]) and in data set [2] (setting [12]) were 16.1% and 28.8%, respectively. In data set [2] (setting [10]), this compound yielded an inhibition at 100 µM of 100%. Further, the LD50 in data set [3] was above 1000 mg/kg.
Consider `O=C1CCc2cc(OCCCCC(=O)N(CCCCO)CC3CCCCC3)ccc2N1` [No. 8, 6-{4-[N-(4-Hydroxybutyl)-N-cyclohexylmethylaminocarbonyl]butoxy}-3,4-dihydrocarbostyril], for which the inhibition at 10 µM in data set [1] (setting [9]) was found to be 100%; in data set [2] (setting [11]), 72.1%. The inhibition at 1 µM in data set [1] (setting [13]) amounted to 10.2%; in data set [2] (setting [12]), 12.2%. In data set [2] (setting [10]), this compound came in with an inhibition at 100 µM of 100%. In data set [3], this compound displayed an LD50 above 1000 mg/kg.
Consider `O=C1CCc2cc(OCCCCC(=O)N(CCO)CC3CCCCO3)ccc2N1` (stereo not drawn) [No. 13, 6-{4-[N-(2-Hydroxyethyl)-N-(2-tetrahydropyranylmethyl)aminocarbonyl]butoxy}-3,4-dihydrocarbostyril], for which the inhibition at 10 µM in data set [1] (setting [9]) was determined as 81.7%; in data set [2] (setting [11]), 30.1%. Besides, the inhibition at 1 µM stood at 5.2% in data set [1] (setting [13]) and 5.3% in data set [2] (setting [12]). Further, in data set [2] (setting [10]), at 100 µM the inhibition was 100%. Moreover, the LD50 in data set [3] is above 1000 mg/kg.
In the case of `O=C1CCc2cc(OCCCC(=O)Nc3c(Cl)cccc3Cl)ccc2N1` [No. 44, 6-[3-(o,o-Dichloroanilinocarbonyl)propoxy]-3,4-dihydrocarbostyril, reference compound], the inhibition at 100 µM in data set [1] (setting [8]) was found to be 95.1%; in data set [2] (setting [10]), 36.8%. In addition, the inhibition at 10 µM in data set [1] (setting [9]) was 27.6%; in data set [2] (setting [11]), 5.3%.
Regarding `O=C(CCCOc1ccc2[nH]c(=O)ccc2c1)N(CCO)C1CCCC(O)C1` (stereo not drawn) [No. 19, 6-{3-[N-(2-Hydroxyethyl)-N-(3-hydroxycyclohexyl)aminocarbonyl]propoxy}carbostyril], the inhibition at 10 µM in data set [1] (setting [9]) was found to be 95.3%; in data set [2] (setting [11]) it was 63.2%. Besides, the inhibition at 1 µM in data set [1] (setting [13]) came out at 47.5%; in data set [2] (setting [12]) it was 12%. The compound also displayed an inhibition at 100 µM in data set [2] (setting [10]) of 100%. In addition, the LD50 in data set [3] was above 1000 mg/kg.
As to `O=C1CCc2cc(OCCCC(=O)N3CCN(C4CCCCC4)CC3)ccc2N1` [No. 18, 6-[3-(4-Cyclohexyl-1-piperazinylcarbonyl)propoxy]-3,4-dihydrocarbostyril], the inhibition at 10 µM was found to be 45.6% in data set [1] (setting [9]) and 42.1% in data set [2] (setting [11]). Also, the inhibition at 1 µM was 15.2% in data set [1] (setting [13]) and 7% in data set [2] (setting [12]). Testing at 100 µM in data set [2] (setting [10]) gave an inhibition of 100%. Besides, the LD50 in data set [3] was above 1000 mg/kg.
With `CC(C)NC(=O)CCOc1ccc2c(c1)CCC(=O)N2` [No. 64, 6-(N--Isopropylaminocarbonylethoxy)-3,4-dihydrocarbostyril, reference compound], the “Inhibition effect on collagen-induced aggregation” value is listed as 17% in data set [1] (setting [4]), 0% in data set [1] (setting [6]) and 0% in data set [1] (concentration of the test compound solution 10^-7 mole). For the same compound, the “Inhibition effect on ADP-induced aggregation” value in data set [2] (setting [4]) was found to be 18%; in data set [2] (setting [5]), 13%; in data set [2] (setting [6]), 7%.
Consider `CCC(O)CN(CC1CCCCC1)C(=O)CCCCOc1ccc2c(c1)CCC(=O)N2` (stereo not drawn) [No. 7, 6-{4-[N-(2-Hydroxybutyl)-N-cyclohexylmethylaminocarbonyl]butoxy}-3,4-dihydrocarbostyril], for which the inhibition at 10 µM in data set [1] (setting [9]) came out at 100%; in data set [2] (setting [11]), 64.3%. The inhibition at 1 µM is 13.3% in data set [1] (setting [13]) and 18.6% in data set [2] (setting [12]). In data set [2] (setting [10]), the inhibition at 100 µM came out at 100%. Moreover, the LD50 in data set [3] is above 1000 mg/kg.
Regarding `COCCN(C(=O)CCCCOc1ccc2[nH]c(=O)ccc2c1)C1CCCCC1` [No. 23, 6-{4-[N-(2-Methoxyethyl)-N-cyclohexylaminocarbonyl]butoxy}carbostyril], the inhibition at 10 µM in data set [1] (setting [9]) and in data set [2] (setting [11]) was 100% in each case. For the same compound, the inhibition at 1 µM in data set [1] (setting [13]) is 90.5%; in data set [2] (setting [12]) it was 91.9%. In addition, the inhibition at 0.1 µM in data set [1] (Oryctolagus cuniculus, Platelet, concentration of the test compound solution 10^-7 mole, read-out: Inhibition effect on collagen-induced aggregation) was 67%; in data set [2] (Oryctolagus cuniculus, Platelet, concentration of the test compound solution 10^-7 mole, read-out: Inhibition effect on ADP-induced aggregation), 40.4%. The inhibition at 100 µM in data set [2] (setting [10]) stood at 100%. The LD50 in data set [3] is above 1000 mg/kg.
`O=C1CCc2cc(OCC(=O)N3CCOCC3)ccc2N1` [No. 65, 6-(Morpholinocarbonylmethoxy)-3,4-dihydrocarbostyril, reference compound]: the inhibition at 100 µM was found to be 5% in data set [1] (setting [8]) and 13% in data set [2] (setting [10]). For the same compound, the inhibition at 10 µM in data set [1] (setting [9]) was determined as 0%; in data set [2] (setting [11]), 6%. Moreover, the inhibition at 1 µM in data set [1] (setting [13]) and in data set [2] (setting [12]) was 0% each time.
On to `CC(=O)OCCCN(CC1CCCCO1)C(=O)CCCCOc1ccc2c(c1)CCC(=O)N2` (stereo not drawn) [No. 21, 6-{4-[N-(3-Acetyloxypropyl)-N-(2-tetrahydropyranylmethyl)aminocarbonyl]butoxy}-3,4-dihydrocarbostyril], for which the inhibition at 10 µM in data set [1] (setting [9]) amounted to 82.9%; in data set [2] (setting [11]), 60.6%. Further, the inhibition at 1 µM in data set [1] (setting [13]) worked out at 34.2%; in data set [2] (setting [12]), 18.6%. In addition, the inhibition at 100 µM in data set [2] (setting [10]) was determined as 100%. The compound further displayed an LD50 in data set [3] above 1000 mg/kg.
As for `O=C1CCc2cc(OCCCCC(=O)N(CCO)c3ccccc3)ccc2N1` [No. 11, 6-{4-[N-(2-Hydroxyethyl)-N-phenylaminocarbonyl]butoxy}-3,4-dihydrocarbostyril], the inhibition at 10 µM in data set [1] (setting [9]) came out at 100%; in data set [2] (setting [11]), 49.5%. In addition, the figures for the inhibition at 1 µM in data set [1] (setting [13]) and in data set [2] (setting [12]) were 33.9% and 22.4%, respectively. In data set [2] (setting [10]), testing at 100 µM gave an inhibition of 100%. Also, in data set [3], the LD50 is above 1000 mg/kg.
For `COc1ccc(CCN(CCO)C(=O)CCCCOc2ccc3[nH]c(=O)ccc3c2)cc1OC` [No. 20, 6-{4-[N-(2-Hydroxyethyl)-N-(β-3,4-dimethoxyphenethyl)aminocarbonyl]butoxy}carbostyril], the inhibition at 10 µM in data set [1] (setting [9]) amounted to 82.6%; in data set [2] (setting [11]) it was 73.2%. The inhibition at 1 µM in data set [1] (setting [13]) came to 29.2%; in data set [2] (setting [12]) it was 28.8%. In data set [2] (setting [10]), this compound returned an inhibition at 100 µM of 100%. In data set [3], this compound gave an LD50 above 1000 mg/kg.
